Results taken from patent US12187672B2, “1,2-diacylglycerol compound, preparation method therefor, and immunomodulator containing same as active ingredient” (ENZYCHEM LIFESCIENCES CORPORATION, priority 2018, dated 2025).

Experiments:
[1] = test system: IL-6; assay: LPS-induced IL-6 secretion reduction in RAW264.7 cells (ELISA); type: cell-based, mouse; conditions: sample 100 μg/ml 1 h, then LPS 1 μg/ml 24 h, Table 2
Procedure: In DMEM (Dulbecco Modified Eagle Medium, Hyclone, Thermo Scientific) medium to which 10% Fetal Bovine Serum was added, RAW264.7 cells, a mouse macrophage family, were suspended at a concentration of 1×10^5 cells/ml, and culture was conducted in a 5% CO2 humidified incubator at 37° C. The cultured RAW264.7 cells were inoculated into a 48 well plate by 5×10^4 cells/ml and stabilized for 15 hours. Then, the culture solution was treated with a glycerol derivative compounds of the type shown in Table 2 and 3 below for 1 hour and then was treated with 1 μg/ml of Lipopolysaccaride (LPS) of a cell stimulator, and subsequent further incubation was conducted for 24 hours. Thereafter 0.5 ml of the culture supernatant was collected for each well and centrifuged (at 3000 rpm, 5 minutes) to recover the supernatant. The IL-6 level in the recovered supernatant was measured according to the manual provided by the Mouse IL-6 ELISA set (BD Biosciences). The day before ELISA was carried out, the IL-6 capture antibody was diluted in phosphate buffered saline, coated on a microwell, and then stored at 4° C. overnight. Each well was washed three times with a buffer solution and then blocked with 2% Bovine Serum Albumin (BSA) for 1 hour at room temperature. After washing with buffer solution three times, […] of sample was dispensed into each well and left at room temperature for 2 hours. Detection antibody which was washed 3 times with washing buffer solution and diluted was dispensed into each well and allowed to react at room temperature for 1 hour and left at room temperature for 1 hour. Thereafter, the secondary HRP conjugated antibody was reacted at room temperature for 30 minutes, washed three times with a buffer solution, and treated with 50 μl of stop solution for each well, and then the optical density was measured at 450 nm with an ELISA microplate leader. The results of the IL-6 expression reduction rate (IL-6 concentration) are shown in Table 2, Table 3, FIG. 1 and FIG. 2 below.

[2] = test system: STAT3; assay: IL-6-induced STAT3 activity, SEAP expression in HEK-Blue IL-6 cells; type: cell-based; conditions: HEK-Blue IL-6 cells; for decrease of STAT3 activity compared to the IL-6 cytokine-treated group: 100 μg/ml; for STAT3 activity_SEAP expression(%) (average ± deviation): sample 100 μg/ml 1 h, then IL-6 5 ng/ml 24 h, negative control = 100
Procedure: HEK-Blue™ IL-6 cells were used to confirm STAT3 activity by STAT3-induced SEAP (secreted embryonic alkaline phosphatase) expression. In DMEM (Hyclone, Thermo Scientific) medium to which 10% Fetal Bovine Serum was added, HEK-Blue™ IL-6 cells were cultured at a concentration of 1×10^5 cells/ml, and maintained in a 5% CO2 humidified incubator at 37° C. The cultured HEK-Blue™ IL-6 cells were inoculated by 1×10^5 cells/ml. Then, the culture solution was treated with a glycerol derivative compounds of the type shown in Table 4 below for 1 hour and then IL-6 (5 ng/ml) was further incubated for 24 hours for STAT3 activity. Thereafter, the culture supernatant was collected for each well and centrifuged (at 3000 rpm, 5 minutes) to recover the supernatant. The SEAP expression level in the recovered supernatant was mixed with Quanti blue reagent and the supernatant at a ratio of 1:10 and left at 37° C. for about 30 minutes. Then, the SEAP concentration was confirmed at 650 nm wavelength using a spectrophotometer, and the results (STAT3 activity inhibitory ability) thereof are shown in Table 4 and FIG. 3 below.

[3] = test system: CXCL8 (IL-8); assay: CXCL8 (IL-8) expression reduction in Gemcitabine-treated THP-1 cells (ELISA); type: cell-based, human; conditions: THP-1 cells; for CXCL8 [IL-8] concentration (average ± deviation): sample 100 μg/ml 1 h, then Gemcitabine 2 μg/ml 24 h
Procedure: In RPMI (Hyclone, Thermo Scientific) medium to which 10% Fetal Bovine Serum was added, THP-1 cells, a human macrophage family, were suspended at a concentration of 1×10^5 cells/ml, and culture was conducted in a 5% CO2 humidified incubator at 37° C. The cultured THP-1 cells were inoculated into a 12 well plate by 1×10^6 cells/ml and stabilized for 30 minutes. Then, the culture solution was treated with a glycerol derivative compounds of the type shown in Table 6 below for 1 hour and then was treated with Gemcitabine (2 μg/ml) of a cell stimulator, and subsequent further incubation was conducted for 24 hours. Thereafter 1.5 ml of the culture supernatant was collected for each well and centrifuged (at 3000 rpm, 5 minutes) to recover the supernatant. The CXCL8 (IL-8) level in the recovered supernatant was measured according to the manual provided by the human IL-8 ELISA set (BD Biosciences). The day before ELISA was carried out, the IL-8 capture antibody was diluted in phosphate buffered saline, coated on a microwell, and then stored at 4° C. overnight. Each well was washed three times with a buffer solution and then blocked with 2% Bovine Serum Albumin (BSA) for 1 hour at room temperature. After washing with washing buffer solution three times, 100 μl of sample was dispensed into each well and left at room temperature for 2 hours. Detection antibody which was washed 3 times with washing buffer and diluted was dispensed into each well and allowed to react at room temperature for 1 hour and left at room temperature for 1 hour. Thereafter, the secondary HRP conjugated antibody was reacted at room temperature for 30 minutes, washed three times with a washing buffer, and treated with 50 μl of stop solution for each well, and then the optical density was measured at 450 nm with an ELISA microplate leader.

[4] = test system: HL-60 cells; assay: Migration of HL-60 cell line toward THP-1 culture supernatant (transmigration assay); type: cell-based, human; conditions: supernatant of THP-1 cells treated with sample 100 μg/ml 1 h, then Gemcitabine 2 μg/ml 24 h
Procedure: In RPMI (Hyclone, Thermo Scientific) medium to which 10% Fetal Bovine Serum was added, THP-1 cells, a human macrophage family, were subcultured at a concentration of 1×10^5 cells/ml, and culture was conducted in a 5% CO2 humidified incubator at 37° C. In order to prepare the THP-1 cell culture solution to be treated in the lower well during the transmigration assay, first, the cultured THP-1 cells were inoculated into a 12 well plate by 1×10^6 cells/ml and stabilized for 30 minutes. Then, the culture solution was treated with a glycerol derivative compounds of the type shown in Table 7 below for 1 hour and then was treated with Gemcitabine (2 μg/ml) of a cell stimulator, and subsequent further incubation was conducted for 24 hours. Thereafter 1.5 ml of the culture supernatant was collected for each well and centrifuged (at 3000 rpm, 5 minutes) to recover the supernatant. The CXCL8 (IL-8) level in the recovered supernatant was measured according to the manual provided by Cultrex 96 well Laminin Cell Invasion assay. The day before Transmigration assay was carried out, a 1× Lamin I solution was treated in the upper Invasion Chamber and coated. Thereafter, in RPMI (Hyclone, Thermo Scientific) medium to which 10% Fetal Bovine Serum was added, the cultured HL-60 cells were despensed of 5×10^4 cells/chamber, and 150 μl of the THP-1 culture supernatant prepared in advance was added to the lower chamber. Thereafter the upper chamber was removed, and the cells were attached to the bottom of the lower chamber by a centrifuge, and then the supernatant was removed. Cell dissociation/Calcein-AM solution was added and reacted for 1 hour. Then, the value obtained using a fluorescence spectroscopy was calculated by converting the number of cells.

[5] = test system: STAT6; assay: IL-4-induced STAT6 activity, pGL4-STAT6 luciferase reporter in A549 cells; type: cell-based; conditions: sample 100 μg/ml 1 h, then IL-4 (2 ng/ml) 20 h, Table 9
Procedure: In DMEM (Dulbecco Modified Eagle Medium, Hyclone, Thermo Scientific) medium to which 10% Fetal Bovine Serum was added, A549 cells were subcultured at a concentration of 1×10^5 cells/ml, and culture was conducted in a 5% CO2 humidified incubator at 37° C. The cultured A549 cells were inoculated into a 48 well plate by 1×10^5 cells/ml and stabilized for 18 hours. Thereafter, pGL4-STAT6 reporter vector containing a STAT6 binding promoter portion was mixed with Attractene to induce complex formation at room temperature for 15 minutes. This complex was treated with the cells and then further incubated for 24 hours. Thereafter, the culture solution was treated with a glycerol derivative compounds of the type shown in Table 9 and 10 below for 1 hour, and then IL-4 (2 ng/ml or 10 ng/ml) was further incubated for 20 hours for STAT6 activity. Thereafter, the culture supernatant was removed for each well, and the remaining cells were lysed with a cell lysis buffer, and then cell lysate was recovered. 90 μl of luciferase reagent was mixed with 10 μl of the recovered cell lysate, and the degree of fluorescence was confirmed using a luminometer. The results are shown in Table 9, Table 10, FIG. 9 and FIG. 10 below.

[6] = test system: IL-4; assay: PKC activator-induced IL-4 secretion reduction in EL-4 cells (ELISA); type: cell-based, mouse; conditions: sample 100 μg/ml 2 h, then PKC activator 18 h, Table 11
Procedure: In DMEM (Dulbecco Modified Eagle Medium, Hyclone, Thermo Scientific) medium to which 10% Fetal Bovine Serum was added, EL-4 cells, a mouse lymphoma family, were subcultured at a concentration of 1×10^5 cells/ml, and culture was conducted in a 5% CO2 humidified incubator at 37° C. The cultured EL-4 cells were inoculated into a 48 well plate by 5×10^4 cells/ml and stabilized for 30 hours. Then, the culture solution was treated with a glycerol derivative compounds of the type shown in Table 11 and 12 below for 2 hours. Thereafter, it were treated with 0.5 μg/ml of PKC activator (p10, some kind of PMA) of a cell stimulator, and subsequent further incubation were conducted for 18 hours. Thereafter 0.5 ml of the culture supernatant was collected for each well and centrifuged (at 3000 rpm, 5 minutes) to recover the supernatant. The IL-4 level in the recovered supernatant was measured according to the manual provided by the Mouse IL-4 ELISA set (BD Biosciences). The day before ELISA was carried out, the IL-4 capture antibody was diluted in phosphate buffered saline, coated on a microwell, and then stored at 4° C. overnight. Each well was washed three times with a buffer solution and then blocked with 2% Bovine Serum Albumin (BSA) for 1 hour at room temperature. After washing with buffer solution three times, 100 μl of sample was dispensed into each well and left at room temperature for 2 hours. Detection antibody which was washed 3 times with washing buffer solution and diluted was dispensed into each well and allowed to react at room temperature for 1 hour and left at room temperature for 1 hour. Thereafter, the secondary HRP conjugated antibody was reacted at room temperature for 30 minutes, washed three times with buffer solution, and treated with 50 μl of stop solution for each well, and then the optical density was measured at 450 nm with an ELISA microplate leader. The results of the measured expression reduction rate ([…]) were shown in Table 11, Table 12, FIG. 11 and FIG. 12 below.

Structure (SMILES)	IL-6 concentration (average ± deviation) [1] [µg/mL]	decrease of STAT3 activity compared to the IL-6 cytokine-treated group [2]	STAT3 activity_SEAP expression(%) (average ± deviation) [2]	CXCL8 [IL-8] concentration (average ± deviation) [3] [pg/µL]	Number of HL-60 cells migrated through Transwell [4] [Cell Number]	STAT6 activity_Luciferase activity (average ± deviation) [5]	IL-4 concentration (average ± deviation) [6] [pg/µL]	reduction of CXCL8 (IL-8) expression/secretion ([3]; Gemcitabine-treated, 100 μg/ml)
CCCCC/C=C\C/C=C\CCCCCCCC(=O)OC(COC(=O)CCC)COC(=O)CCCCCCCCCCCCCCC (stereo not shown) [EC_A17]	0.154 ± 0.001	about 25%	185.4 ± 19.3	110 ± 0.2	30692.8	476.2 ±113.4	–	–
CCCCC/C=C\C/C=C\CCCCCCCC(=O)OC(COCC)COC(=O)CCCCCCCCCCCCCCC (stereo not shown) [EC_A14]	0.277 ± 0.002	–	185.0 ± 30.0	–	–	539.2 ± 40.3	–	–
CCCCC/C=C\C/C=C\CCCCCCCC(=O)OC(COC(=O)CN)COC(=O)CCCCCCCCCCCCCCC (stereo not shown) [EC_A57]	0.120 ± 0.002	–	243.0 ± 29.5	–	–	–	745.6 ± 8.35	–
CCCCC/C=C\C/C=C\CCCCCCCC(=O)OC(COC(=O)CCCC)COC(=O)CCCCCCCCCCCCCCC (stereo not shown) [EC_A18]	0.147 ± 0.003	about 25%	166.2 ± 29.6	84.0 ± 1.8	9891.6	1189.2 ± 174.7	–	about 20%
